Measurements reported in patent US7705203B2, “Benzoate inductible promoters” (Purdue Research Foundation, priority 2002, dated 2010).
Entries after “also recorded” stand apart in the source; their conditions may differ.

B1: GAD1: protein encoded by yeast one-hybrid clone GAD1 (SEQ ID NO:15), candidate transcription factor binding BREF51 (protein)
chain: MVSFKSLLTATTLATAVLAIPHSGHGHGSHKHRSTHVASKRTSSSKRGAAYNSASSVHTLTSGSSGNGTVSWAYDWNMYADGTLPSNVEYVPMLWGSKMFGGWLTAIETALDSGSNYIMGFNEPDSSSQASMTASEAASSYKNYITPYSGKAKLVTPAVTSSTTEGEGLSWMKSFLSECSECDMSVLAVHWYGTSADEFKSFVQEAMQVADDNGLDETWVTEFALTSDESAGGDESSAADFLDEGVGRYAYYMCADGYLLSGEELSSSGKVYVA
modifications: Aspergillus niger
B2: GAD11: protein encoded by yeast one-hybrid clone GAD11 (SEQ ID NO:17), candidate transcription factor binding BREF51 (protein)
chain: DSAESRFSLHSQGSVPPAPSTATKHMTPHNHTNNHGGPLPSKPGSEGASNNGTQITGPHESNLIEQFREREDKLWAYVRSVHEELNGLRTEVAALRAQLASANVNALAMSSQSAPQSQPETNAAGTSQR
modifications: Aspergillus niger

Key:
[1] = system: bphA gene; assay: RNA (Northern) blot of bphA gene transcription in mycelia; format: cell-based, Aspergillus niger; details: 8 mM inducer, RNA blot (FIG. 4)
Experimental: The time course gene expression induction was examined by analyzing total RNA at different times after adding benzoic acid. Northern (RNA) blots were carried out using total RNA extracted from mycelia grown for different periods of time in the presence of benzoic acid. Initially, the fungus was inoculated in CM medium (Pontecorvo (1953) Adv. Genet. 5: 141-238) for 24 hours, transferred to benzoate-containing medium (0.1% w/v) for different times, and total RNA was extracted using the Rneasy Plant Total RNA kit (Qiagen Inc, Valencia, Calif.) according to the manufacturer's instructions. Total RNA was resolved on a formaldehyde-agarose gel and transferred to a Hybond-N nylon membrane (Amersham Life Sci. Inc, Arlington Heights, Ill.). Radiolabeled BPH probe was allowed to hybridize to the membrane, as described above. Northern blot methods were also carried out as recommended (Amersham).
Different benzoate concentrations and inducers were used to better characterize the inducibility of the bphA gene. Gene expression was assayed by Northern blots. Benzoate 4-hydroxylase activity is also assessed by enzymatic assays to confirm the inducibility at the transcriptional level described by Van Gorcom et al. ((1990) Mol. Gen. Genet. 223, 192-197). Inducibility is also verified by reverse transcription of mRNAs produced under induction conditions.
To verify the inducibility of the bphA gene by benzoic acid, A. niger was inoculated in complete medium and grown for 24 hours before being transferred to fresh medium containing 0.1% benzoic acid. Mycelia were harvested after different periods of induction, and total RNA was extracted.

[2] = system: BRE; assay: Activation of BRE fused to GFP in fungal protoplasts (surface receptor test); format: cell-based
Experimental: While not necessary to understand to practice the invention, a more complicated mechanism of induction may include a surface receptor that binds to benzoate and which then initiates either some kind of signal transduction cascade or the release of a TF that then culminates in the activation of the BPH promoter (FIGS. 12C and D). The hypothesis of a surface receptor was tested by using the p-NH2-benzoate coupled to agarose (as described above) as a non-cleavable external probe. Fungal protoplasts containing the BRE fused to GFP were then prepared, and activation of the BRE (production of the GFP marker) by addition of the agarose-immobilized benzoate derivative to the fungal protoplasts was scored. […] In order to investigate whether the disparity of size between the larger agarose beads and fungal protoplasts may have caused steric problems in binding of the inducer, smaller ligands still incapable of uptake are constructed and utilized to confirm a non-membrane surface location.
The hypothesis of a surface receptor was tested by using the p-NH2-benzoate coupled to agarose (as described above) as a non-cleavable external probe. Fungal protoplasts containing the BRE fused to GFP were then prepared, and activation of the BRE (production of the GFP marker) by addition of the agarose-immobilized benzoate derivative to the fungal protoplasts was scored. […]

[3] = system: BREF51; assay: Electrophoretic Mobility Shift Assay (EMSA) with total protein extracts from yeast GAD clones; format: binding, A. niger; details: 5 μg total yeast protein extract
Excerpt: The protein encoded by GAD1 (SEQ ID NO:15) is highly similar to a predicted protein present in the A. nidulans genome (E value 2e^−83), and similar to a hypothetical protein (B24P11.210) in the N. crassa genome (E value 4e^−27) (Table 2). GAD1 protein is rich in serine residues (16%), and is predicted by PSORTII (Nakai and Horton (1999) Trends Biochem. Sci. 24: 34-35) to be localized in the nucleus (70.6% probability). […] Serine-rich motifs can be phosphorylation targets by protein kinase C in proteins (Branden and Tooze (1999) Introduction to protein structure, 2nd ed. Garland Publishing, New York, N.Y. 410 p.). […] While not necessary to understand in order to practice the present invention, if GAD1 is involved in the regulation of BPHprom, GAD1 protein might be always bound to a benzoic acid response element in the bphA promoter. […] However, addition of benzoic acid could cause phosphorylation of one of the serine residues in GAD1, leading to its activation. […]
Positive clones identified on the one-hybrid screen were grown in 100 mL of SD/-Leu media, and total proteins were extracted following a modified procedure from that described by Arndt et al. ((1987) Science 237: 874-880). […] Protein concentration of the resulting supernatant was determined by the Bradford method (Bio-Rad, Hercules, Calif.), and BSA was used as a standard.

| Molecule | induction of transcription of the bphA gene [1] | also measured |
| --- | --- | --- |
| OCc1ccccc1 [benzyl alcohol] | do not induce the promoter | induction of transcription of the bphA gene ([1]; listed as Benzyl alcohol): not effective inducers |
| O=C(O)CCc1ccccc1 [hydrocinnamic acid] | do not induce the promoter; also recorded: not effective inducers |  |
| COC(=O)c1ccccc1 [methyl benzoate] | can induce the promoter; also recorded: induced |  |
| Nc1ccc(C(=O)O)cc1 [p-aminobenzoate] |  | GFP fluorescence in the BRE-GFP transformed line [2]: induced GFP fluorescence |
| O=C([O-])c1ccccc1.[Na+] [sodium benzoate] | can induce the promoter; also recorded: induced |  |
| B1 |  | gel mobility shift of the BREF51 fragment [3]: showed a gel mobility shift; also recorded: positive mobility shifts |
| B2 |  | gel mobility shift of the BREF51 fragment [3]: showed a gel mobility shift; also recorded: positive mobility shifts |
